Reference: US20150118229A1, “JAK1 SELECTIVE INHIBITOR AND USES THEREOF” (ABBVIE INC., priority 2013, published 2015)
“Also recorded” adds a separate entry of the source. Where two headings read alike, the source gives them in different places.

Columns and labels:
Rock1 = Rock1 (Homo sapiens, UniProt Q13464); experiment: Kinase panel, Rock1; assay type: biochemical
Rock2 = Rock2 (Homo sapiens, UniProt O75116); experiment: Kinase panel, Rock2; assay type: biochemical
IL-15 signaling = experiment: Whole blood assay IL-15 pSTAT5 CD3+; assay type: cell-based
EPO (Erythroid CFU) = experiment: Erythroid bone marrow colony forming assay (EPO); assay type: cell-based; conditions: read-out: Colony Formation EPO (Erythroid CFU)
[1] = test system: peripheral NK cell counts; experiment: Peripheral NK cell counts in healthy rats; assay type: in vivo, rat
Description: The correlation of this effect with ex vivo cytokine signaling inhibition is shown in the right panel of FIG. 6. These measurements correlated well, confirming the Jak dependency of the NK cell count endpoint.
To establish the relationship between changes in NK cell counts and nonclinical efficacy, the changes in NK cell counts were compared with decreases in rat AIA disease activity per unit exposure.

BCRP = target: T1, BCRP (Homo sapiens, UniProt Q9UNQ0); experiment: BCRP inhibition; assay type: in vitro ADME
T1 construct: expressed in transfected cells; host or cells: MDCKII-BCRP

[2] = [14C]Compound 1 absorption and excretion in bile duct-cannulated rats; assay type: in vivo, Sprague-Dawley male rats
[3] = Metabolic stability in liver microsomes, monkey; assay type: in vitro ADME; conditions: read-out: intrinsic clearance in liver microsomes (scaled)
[4] = Metabolic stability in liver microsomes, dog; assay type: in vitro ADME; conditions: read-out: intrinsic clearance in liver microsomes (scaled)
[5] = Metabolic stability in hepatocytes, human; assay type: in vitro ADME; conditions: read-out: intrinsic clearance in hepatocytes (converted)
CYP3A4 = CYP3A4 (Homo sapiens, UniProt P08684); experiment: Metabolism by recombinant CYP3A4; assay type: in vitro ADME
Description: (§1) In vitro biotransformation of Compound 1 primarily occurred at imidazolpyrrolopyrazinyl ethyl pyrrolidine moiety.

[6] = In vitro metabolism of [14C]Compound 1 in liver cytosol and hepatocytes; assay type: in vitro ADME, rat, dog, monkey, and human
Description: as §1

Photostability = assay type: physicochemical; conditions: preclinical studies
Description: In repeated-dose oral toxicity studies in rats and dogs of 6 and 9 months duration, respectively, no evidence of skin or ocular toxicity has been observed.

[7] = Human PK, single ascending dose Study M13-401; assay type: in vivo; conditions: for AUC(0-t) / AUC(0-inf): human, in vivo
[8] = Human PK, multiple ascending dose Study M13-845 Substudy 1; assay type: in vivo; conditions: for AUC: human, in vivo, oral
CYP2C19 = CYP2C19 (Homo sapiens, UniProt P33261); experiment: CYP inhibition in human liver microsomes, CYP2C19
[9] = test system: GMCSF-induced pSTAT5 (Jak2 signaling); experiment: Ex vivo stimulation assay GM-CSF pSTAT5, orally dosed human; conditions: 24 mg but not 12 mg oral, 1 hour post dose
IL-7-induced pSTAT5 = experiment: Ex vivo stimulation assay IL-7 pSTAT5, orally dosed healthy human subjects; conditions: oral
[10] = 12 mg BID, Day 14, mean (% CV), Western subjects, listed as Comp. 1
[11] = 24 mg BID, Day 14, mean (% CV), Western subjects, listed as Comp. 1

Chain of CYP2C19 (P33261 whole entry): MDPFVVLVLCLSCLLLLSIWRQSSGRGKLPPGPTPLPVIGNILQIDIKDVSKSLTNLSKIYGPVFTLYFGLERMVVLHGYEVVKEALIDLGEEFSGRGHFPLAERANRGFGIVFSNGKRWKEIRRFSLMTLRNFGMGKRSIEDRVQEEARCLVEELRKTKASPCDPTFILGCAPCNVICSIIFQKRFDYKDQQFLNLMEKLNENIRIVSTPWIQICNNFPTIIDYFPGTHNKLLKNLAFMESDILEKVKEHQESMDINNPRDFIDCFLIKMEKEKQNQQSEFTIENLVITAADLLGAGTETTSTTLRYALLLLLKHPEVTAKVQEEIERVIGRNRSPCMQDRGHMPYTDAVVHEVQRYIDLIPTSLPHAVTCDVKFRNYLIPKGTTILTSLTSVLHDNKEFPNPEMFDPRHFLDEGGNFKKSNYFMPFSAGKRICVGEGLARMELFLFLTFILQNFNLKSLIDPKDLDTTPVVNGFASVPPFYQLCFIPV
Chain of Rock2 (O75116 whole entry, species assumed): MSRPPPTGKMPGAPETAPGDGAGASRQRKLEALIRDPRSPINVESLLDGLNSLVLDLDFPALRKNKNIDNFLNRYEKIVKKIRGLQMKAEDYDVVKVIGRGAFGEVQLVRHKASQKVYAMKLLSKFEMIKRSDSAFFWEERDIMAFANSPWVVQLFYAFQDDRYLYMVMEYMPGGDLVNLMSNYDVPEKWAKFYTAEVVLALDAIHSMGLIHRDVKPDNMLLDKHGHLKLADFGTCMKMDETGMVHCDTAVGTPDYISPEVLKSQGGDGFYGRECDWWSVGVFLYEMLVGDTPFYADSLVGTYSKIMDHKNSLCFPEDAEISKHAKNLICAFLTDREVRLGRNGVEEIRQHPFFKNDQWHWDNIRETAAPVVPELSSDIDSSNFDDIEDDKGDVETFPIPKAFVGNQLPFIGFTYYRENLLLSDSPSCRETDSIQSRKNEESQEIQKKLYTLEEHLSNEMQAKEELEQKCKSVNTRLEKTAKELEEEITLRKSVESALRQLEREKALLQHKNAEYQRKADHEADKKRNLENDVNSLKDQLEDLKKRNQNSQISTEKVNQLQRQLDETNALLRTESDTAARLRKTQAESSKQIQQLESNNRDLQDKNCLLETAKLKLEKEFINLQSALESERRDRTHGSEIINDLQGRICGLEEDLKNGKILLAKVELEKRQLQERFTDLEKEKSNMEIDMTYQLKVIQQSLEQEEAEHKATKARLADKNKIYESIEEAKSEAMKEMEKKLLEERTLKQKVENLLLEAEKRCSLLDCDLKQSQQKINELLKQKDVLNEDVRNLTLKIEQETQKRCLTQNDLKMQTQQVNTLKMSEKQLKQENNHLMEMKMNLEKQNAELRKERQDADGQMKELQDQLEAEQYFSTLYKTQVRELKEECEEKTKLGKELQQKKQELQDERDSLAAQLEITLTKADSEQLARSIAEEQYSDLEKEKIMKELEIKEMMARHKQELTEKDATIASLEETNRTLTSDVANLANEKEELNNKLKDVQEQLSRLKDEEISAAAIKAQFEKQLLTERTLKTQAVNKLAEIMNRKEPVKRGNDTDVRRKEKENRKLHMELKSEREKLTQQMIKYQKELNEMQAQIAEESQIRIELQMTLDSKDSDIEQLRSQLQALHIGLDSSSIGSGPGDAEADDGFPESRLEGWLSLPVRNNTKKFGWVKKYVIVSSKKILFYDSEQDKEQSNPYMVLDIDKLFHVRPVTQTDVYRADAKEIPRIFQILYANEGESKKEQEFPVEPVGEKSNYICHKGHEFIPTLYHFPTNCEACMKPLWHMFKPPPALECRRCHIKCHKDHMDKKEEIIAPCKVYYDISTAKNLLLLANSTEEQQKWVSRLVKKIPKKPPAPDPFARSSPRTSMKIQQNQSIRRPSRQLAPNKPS
Chain of CYP3A4 (P08684 whole entry): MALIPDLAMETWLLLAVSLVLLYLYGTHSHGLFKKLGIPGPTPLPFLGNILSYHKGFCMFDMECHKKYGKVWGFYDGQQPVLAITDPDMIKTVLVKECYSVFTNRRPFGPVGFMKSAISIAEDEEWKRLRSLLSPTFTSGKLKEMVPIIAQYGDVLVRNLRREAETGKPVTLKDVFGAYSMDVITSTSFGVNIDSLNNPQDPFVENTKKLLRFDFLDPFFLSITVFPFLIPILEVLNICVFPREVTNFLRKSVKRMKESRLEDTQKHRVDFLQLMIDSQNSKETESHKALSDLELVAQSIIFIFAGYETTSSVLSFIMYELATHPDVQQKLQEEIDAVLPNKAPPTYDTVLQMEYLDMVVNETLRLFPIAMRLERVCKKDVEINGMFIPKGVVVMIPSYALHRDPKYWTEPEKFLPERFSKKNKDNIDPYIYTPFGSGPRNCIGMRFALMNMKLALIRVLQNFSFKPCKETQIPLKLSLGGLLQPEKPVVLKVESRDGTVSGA
T1 sequence (Q9UNQ0 whole entry): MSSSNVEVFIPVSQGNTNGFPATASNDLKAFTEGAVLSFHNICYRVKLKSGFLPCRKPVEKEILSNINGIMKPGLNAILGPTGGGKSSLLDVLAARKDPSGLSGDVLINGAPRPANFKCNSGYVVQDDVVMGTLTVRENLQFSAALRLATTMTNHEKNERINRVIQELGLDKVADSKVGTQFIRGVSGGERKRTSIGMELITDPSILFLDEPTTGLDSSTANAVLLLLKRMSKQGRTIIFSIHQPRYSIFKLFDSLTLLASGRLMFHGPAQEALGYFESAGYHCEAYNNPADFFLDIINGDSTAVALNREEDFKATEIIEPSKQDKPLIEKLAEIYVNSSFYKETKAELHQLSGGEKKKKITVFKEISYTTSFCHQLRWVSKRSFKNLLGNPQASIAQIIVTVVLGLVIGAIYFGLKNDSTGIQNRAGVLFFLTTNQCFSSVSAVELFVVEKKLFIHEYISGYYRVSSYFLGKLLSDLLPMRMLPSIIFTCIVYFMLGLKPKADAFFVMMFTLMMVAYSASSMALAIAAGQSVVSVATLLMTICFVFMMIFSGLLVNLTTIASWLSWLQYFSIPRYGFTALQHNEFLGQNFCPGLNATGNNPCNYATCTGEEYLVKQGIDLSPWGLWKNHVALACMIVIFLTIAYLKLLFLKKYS
Chain of Rock1 (Q13464 whole entry, species assumed): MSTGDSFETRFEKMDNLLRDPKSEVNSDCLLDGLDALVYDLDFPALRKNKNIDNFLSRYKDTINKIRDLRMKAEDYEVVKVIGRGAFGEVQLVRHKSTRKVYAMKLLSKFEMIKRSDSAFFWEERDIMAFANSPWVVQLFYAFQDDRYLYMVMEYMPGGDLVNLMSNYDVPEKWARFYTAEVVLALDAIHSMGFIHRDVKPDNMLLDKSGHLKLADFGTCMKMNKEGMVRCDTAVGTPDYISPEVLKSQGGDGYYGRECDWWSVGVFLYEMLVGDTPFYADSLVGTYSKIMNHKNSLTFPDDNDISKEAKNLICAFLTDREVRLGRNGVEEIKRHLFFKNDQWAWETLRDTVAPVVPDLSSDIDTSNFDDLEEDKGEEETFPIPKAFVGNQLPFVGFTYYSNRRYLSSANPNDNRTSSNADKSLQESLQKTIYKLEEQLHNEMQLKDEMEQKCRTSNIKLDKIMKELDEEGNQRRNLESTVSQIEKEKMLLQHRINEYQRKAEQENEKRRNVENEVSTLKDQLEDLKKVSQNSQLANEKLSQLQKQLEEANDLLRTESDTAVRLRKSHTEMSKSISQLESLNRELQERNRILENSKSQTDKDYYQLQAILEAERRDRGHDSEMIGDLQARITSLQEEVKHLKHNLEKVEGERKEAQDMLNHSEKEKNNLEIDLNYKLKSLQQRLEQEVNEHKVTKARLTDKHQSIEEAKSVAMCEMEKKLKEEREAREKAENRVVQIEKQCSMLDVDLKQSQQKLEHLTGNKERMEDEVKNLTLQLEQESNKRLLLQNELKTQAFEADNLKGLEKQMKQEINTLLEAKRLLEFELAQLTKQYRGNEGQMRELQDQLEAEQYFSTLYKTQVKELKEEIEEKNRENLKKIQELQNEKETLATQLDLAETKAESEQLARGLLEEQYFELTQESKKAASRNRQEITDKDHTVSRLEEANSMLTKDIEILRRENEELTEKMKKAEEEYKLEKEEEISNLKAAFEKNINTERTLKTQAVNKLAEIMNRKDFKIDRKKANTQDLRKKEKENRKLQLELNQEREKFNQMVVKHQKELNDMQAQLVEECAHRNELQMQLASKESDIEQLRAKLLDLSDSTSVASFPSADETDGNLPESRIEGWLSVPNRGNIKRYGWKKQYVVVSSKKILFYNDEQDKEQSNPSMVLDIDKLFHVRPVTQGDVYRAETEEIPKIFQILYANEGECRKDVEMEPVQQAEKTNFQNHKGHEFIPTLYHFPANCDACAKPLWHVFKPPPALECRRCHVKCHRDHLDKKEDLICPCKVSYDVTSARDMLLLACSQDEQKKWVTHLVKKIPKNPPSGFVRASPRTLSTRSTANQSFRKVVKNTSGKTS

CC[C@@H]1CN(C(=O)NCC(F)(F)F)C[C@@H]1c1cnc2cnc3[nH]ccc3n12 [Compound 1, (3S,4R)-3-ethyl-4-(3H-imidazo[1,2-a]pyrrolo[2,3-e]pyrazin-8-yl)-N-(2,2,2-trifluoroethyl)pyrrolidine-1-carboxamide]
IC50 (Rock1): 550 nM | IC50 (Rock2): 430 nM | IC50 (IL-15 signaling; read-out: IL-15 (pSTAT5, CD3+)): 16 nM | IC50 (IL-15 signaling; whole blood, read-out: IC50 IL-15 pSTAT5 CD3+): 16 nM | IC50 (EPO (Erythroid CFU)): 400 nM | effects on peripheral NK cell counts ([1]; over the efficacious exposure range, rat): less than that of Tofacitinib | predicted maximum decrease of NK cell counts ([1]; over the intended clinical exposure range, on the basis of rat models): approximately 40% | NK Counts (exposure) ([1]; rat): 290 ng·h/mL | NK cell count decrease at about 60% efficacy (inhibition of paw swelling) ([1]; rat): ~25% | IC50 (BCRP): 126000 nM | mean total recovery of dosed radioactivity ([2]; intravenous): 96.0% | radioactivity excreted into bile ([2]; intravenous): 49.7 % of dose | radioactivity excreted into urine ([2]; intravenous): 23.7 % of dose | mean total recovery of dosed radioactivity ([2]; oral): 96.8% | parent drug excreted unchanged in urine ([2]; oral): 9% | radioactivity excreted into bile ([2]; oral): 52.6 % of dose | radioactivity excreted into urine ([2]; oral): 11.1 % of dose | dose absorbed (radioactivity in bile and urine) ([2]; single oral dose 3 mg/kg): at least 63.7% | CLint scaled at 0.5 μM [3]: < 26.7 mL/min/kg | CLint scaled at 0.5 μM [4]: < 33.3 mL/min/kg | CLint scaled at 1 μM [5]: 6.1 mL/min/kg | percentage of parent remaining (CYP3A4): 36.0% | metabolism in liver cytosol incubations ([6]; liver cytosol): No metabolism | turnover in hepatocytes ([6]; rat, dog, monkey, human hepatocytes): < 10% | photostability (Photostability): photoinstability | decrease in AUC in the presence of food ([7]; Substudy 2, 3 mg single dose): < 1% | AUC(0-t) ([7]; oral, 3 mg): 102 ng·h/mL | AUC(0-t) ([7]; oral, 6 mg): 159 ng·h/mL | AUC(0-t) ([7]; oral, 24 mg): 612 ng·h/mL | AUC(0-inf) ([7]; single oral 1 mg, mean ± SD): 30.1 ± 5.72 ng·h/mL | AUC(0-t) ([7]; single oral 1 mg, mean ± SD): 29.8 ± 5.78 ng·h/mL | AUC(0-t) ([7]; single oral 3 mg, mean ± SD): 102 ± 27.5 ng·h/mL | AUC(0-t) ([7]; single oral 6 mg, mean ± SD): 159 ± 37.5 ng·h/mL | AUC(0-t) ([7]; single oral 12 mg, mean ± SD): 329 ± 48.9 ng·h/mL | AUC(0-t) ([7]; single oral 24 mg, mean ± SD): 612 ± 78.6 ng·h/mL | AUC(0-t) ([7]; single oral 36 mg, mean ± SD): 909 ± 201 ng·h/mL | AUC(0-inf) ([7]; single oral 48 mg, mean ± SD): 1040 ± 174 ng·h/mL | AUC(0-t) ([7]; single oral 48 mg, mean ± SD): 1030 ± 174 ng·h/mL | fe, dose recovered unchanged in urine ([7]; single oral 1 mg, mean ± SD): 17.7 ± 9.58% | fe, dose recovered unchanged in urine ([7]; single oral 3 mg, mean ± SD): 15.6 ± 4.44% | fe, dose recovered unchanged in urine ([7]; single oral 6 mg, mean ± SD): 15.6 ± 3.49% | fe, dose recovered unchanged in urine ([7]; single oral 12 mg, mean ± SD): 19.9 ± 2.26% | fe, dose recovered unchanged in urine ([7]; single oral 24 mg, mean ± SD): 18.6 ± 3.08% | fe, dose recovered unchanged in urine ([7]; single oral 36 mg, mean ± SD): 20.8 ± 9.25% | fe, dose recovered unchanged in urine ([7]; single oral 48 mg, mean ± SD): 16.4 ± 5.48% | AUC12/dose ([8]; 3 mg BID, Day 1): 25.1 ng·h/mL/mg | C12/dose ([8]; 3 mg BID, Day 1): 0.32 ng/mL/mg | Cmax/dose ([8]; 3 mg BID, Day 1): 6.33 ng/mL/mg | AUC12/dose ([8]; 3 mg BID, Day 14): 26.1 ng·h/mL/mg | Cmax/dose ([8]; 3 mg BID, Day 14): 6.16 ng/mL/mg | Fe %, unchanged drug recovered in urine ([8]; 3 mg BID, Day 14): 18.8% | AUC12/dose ([8]; 6 mg BID, Day 1): 22.3 ng·h/mL/mg | C12/dose ([8]; 6 mg BID, Day 1): 0.30 ng/mL/mg | Cmax/dose ([8]; 6 mg BID, Day 1): 4.91 ng/mL/mg | AUC12/dose ([8]; 6 mg BID, Day 14): 23.1 ng·h/mL/mg | Cmax/dose ([8]; 6 mg BID, Day 14): 4.80 ng/mL/mg | Fe %, unchanged drug recovered in urine ([8]; 6 mg BID, Day 14): 18.7% | AUC12/dose ([8]; 12 mg BID, Day 1): 22.5 ng·h/mL/mg | C12/dose ([8]; 12 mg BID, Day 1): 0.33 ng/mL/mg | Cmax/dose ([8]; 12 mg BID, Day 1): 4.84 ng/mL/mg | Fe %, unchanged drug recovered in urine ([8]; 12 mg BID, Day 14): 21.4% | AUC12/dose [8, 10]: 22.6 ng·h/mL/mg | Cmax/dose [8, 10]: 4.80 ng/mL/mg | AUC12/dose ([8]; 24 mg BID, Day 1): 22.5 ng·h/mL/mg | C12/dose ([8]; 24 mg BID, Day 1): 0.32 ng/mL/mg | Cmax/dose ([8]; 24 mg BID, Day 1): 5.25 ng/mL/mg | Fe %, unchanged drug recovered in urine ([8]; 24 mg BID, Day 14): 18.7% | AUC12/dose [8, 11]: 22.0 ng·h/mL/mg | Cmax/dose [8, 11]: 4.95 ng/mL/mg | AUC ([8]; 3 mg, 3 mg BID, Day 1, mean, read-out: AUC12): 75.3 ng·h/mL | AUC ([8]; 3 mg, 3 mg BID, Day 14, mean, read-out: AUC12): 78.3 ng·h/mL | AUC ([8]; 6 mg, 6 mg BID, Day 14, mean, read-out: AUC12): 138 ng·h/mL | AUC ([8]; 6 mg, AUC12, 6 mg BID, Day 1, mean, heading: AUC12): 134 ng·h/mL | AUC ([8]; 12 mg, 12 mg BID, Day 1, mean, read-out: AUC12): 270 ng·h/mL | AUC ([8]; 12 mg, 12 mg BID, Day 14, mean, read-out: AUC12): 271 ng·h/mL | AUC ([8]; 24 mg, 24 mg BID, Day 1, mean, read-out: AUC12): 540 ng·h/mL | AUC ([8]; 24 mg, 24 mg BID, Day 14, mean, read-out: AUC12): 529 ng·h/mL | time-dependent inhibition of CYP2C19 (CYP2C19; human liver microsomes): No obvious time-dependent inhibition | inhibition of CYP2C19 (CYP2C19; up to 30 μM): did not inhibit; also recorded: not an inhibitor | inhibition of GMCSF-induced pSTAT5 [9]: partial inhibition | dose causing the same inhibition of IL-7-induced pSTAT5 as 5 mg tofacitinib (IL-7-induced pSTAT5): 12 mg
